According to patent US8586007B2, “Co-polymer stabilizers for hydrofluoroalkane dispersions” (Wayne State University, priority 2007, dated 2013):
Blank lines part the entries; values can stand above or below the molecule they belong to.

Assays:
[1] = Solubility in propellant / solvent; assay type: physicochemical
[2] = Colloidal probe microscopy (CPM): adhesion force (Fad) in liquid HPFP in the presence of surfactants and/or cosolvents; assay type: physicochemical; details: 298 K
From the text: Preparation and Characterization of the Drug-Modified AFM Cantilever (Colloidal Probe). Single salbutamol crystals were glued onto silicon nitride contact-mode cantilevers (NP-20) with the help of an AFM (Pico LE, Molecular Imaging). In brief, the cantilever was first positioned above a tiny drop of epoxy (Epotek 377). The AFM cantilever was then slowly approached toward the epoxy. A tiny amount of it was then carefully transferred onto the AFM tip. A similar procedure was used to attach the drug particle to the AFM tip containing the epoxy. The particle-modified AFM tip was then kept at room temperature for 24 h to allow the complete curing of the epoxy. SEM images of the drug-modified cantilevers were obtained after the adhesion force measurements to verify the integrity and quality of the probe. The spring constant of the drug-modified cantilevers was determined using a module attached to the AFM and the MI Thermal K 1.02 software. Preparation and Characterization of the Drug Crystal Substrate. Salbutamol was first dissolved in ethanol to saturation. The solution was then transferred onto a cover glass previously treated with piranha solution (7:3 v/v H2SO4/H2O2). The system was kept inside a scaled Petri dish. The crystallization process of salbutamol was induced by the controlled evaporation of ethanol. Optical microscopy was used to observe the crystal morphology. The surface topography of the salbutamol crystal was examined by AFM under tapping mode, with a silicon cantilever (BS-Multi 75). Colloidal Probe Microscopy (CPM). The force of adhesion (Fad) between the salbutamol-modified cantilever and a smooth salbutamol crystal substrate was determined by CPM, at 298 K. A fluid cell was used to perform the experiments in liquid HPFP. The procedure adopted here is similar to that used to investigate the effect of other excipients on drug-drug interactions. FIG. 2a is the schematic diagram of a typical force curve obtained during the CPM measurements. The Fad is determined as the product of the spring constant (k) of the drug-modified AFM cantilever and the maximum cantilever deflection (x) during the retraction stage of the force measurement; […]; as schematically shown in FIG. 2a. Several contact points, randomly distributed on the crystal surfaces over a 9 μm×9 μm area, were selected for the measurements. At each contact point, 25 force-distance curves were measured. The tip was moved toward and away from the substrate in a range of 2000 nm and a sweep duration of 2 s. The histograms of the measured Fad were fit to a Gaussian distribution, from which an average Fad and deviation were obtained. The same drug probe was used throughout the measurements to guarantee a constant contact area. Great care was taken to guarantee the integrity of the drug probe. Since the solubility of salbutamol in HPFP is negligible, before each new adhesion force measurement, the drug probe and drug crystal substrate were thoroughly rinsed with HPFP, followed by an Fad test in pure HPFP. […] A second set of completely independent measurements (new probe and crystal substrate) were obtained to assess the reproducibility of the reported trend in Fad.

Solubility in HPFP ([1]; HPFP): negligible
Solubility in ethanol ([1]; ethanol): appreciable solubility
Structure (SMILES): CC(C)(C)NCC(O)c1ccc(O)c(CO)c1 (stereo not shown) [salbutamol]

Fad probe 1 ([2]; no surfactant, cosolvent ethanol 7% (v/v) alone, probe 1): 6.31 ± 0.47 nN
Fad probe 2 ([2]; no surfactant, cosolvent ethanol 7% (v/v) alone): 5.01 ± 0.26 nN
Structure (SMILES): CCO [Ethanol]

Fad probe 1 ([2]; surfactant 1.0 mM with cosolvent ethanol 7% (v/v), probe 1): 1.54 ± 0.35 nN
Fad probe 1 ([2]; surfactant 1.0 mM with cosolvent ethanol 7% (v/v), probe 1, listed as oleic acid): 1.54 nN
Fad probe 2 ([2]; surfactant 1.0 mM with cosolvent ethanol 7% (v/v)): 1.64 ± 0.21 nN
Structure (SMILES): CCCCCCCC/C=C\CCCCCCCC(=O)O [Oleic acid]
